In experiment [1] the test system is male mice of ddY line. Put plainly: Survival time under hypoxia (aeration with 96% nitrogen and 4% oxygen). Format: in vivo. The conditions noted are these: 50 mg/kg, i.p., 60 minutes before aeration with 96% nitrogen and 4% oxygen; time to respiratory arrest. As to the method: In this experiment, 5 to 6-week-old male mice of ddY line (10 individuals per one group) were used after fasting treatment for 24 hours.
Each compound obtained in the present invention was administered intraperitoneally. After 60 minutes of the administration, each mouse was transferred separately into a transparent vessel (capacity, 1,000 ml) equipped with an air exit, and the vessel was aerated with a mixed gas consisting of 96% nitrogen and 4% oxygen at an aeration rate of 5 ℓ/min.
All tested mice died within 180 seconds after the commencement of the gas mixture aeration. Terminal respiration was observed several times prior to the respiratory arrest. Survival time of the control group was roughly in the range of from 96 to 111 seconds.

Experiment [2] relates to male mice of ddY line. Format: in vivo. To be noted: 50 mg/kg, i.p., 60 minutes before KCN (3.0 mg/kg) tail intravenous injection; for Survival Time ±S.E.: time to respiratory arrest.
The test system of experiment [3] is male rats of SD line. In words: High cholesterol feed: blood viscosity, serum total cholesterol, triglyceride, GOT. Format: in vivo. To be noted: 100 mg/kg/day, p.o., 4 days. As to the method:
In this experiment, 5-week-old male rats of SD line (5 individuals per one group) were used after rearing them for 1 week using normal feed, and each compound of the present invention (100 mg/kg) was administered orally once a day for 4 days. Simultaneously with the commencement of the administration, the normal feed was replaced by a high cholesterol feed. After completion of the administration, they were subjected to fasting treatment for 24 hours. Thereafter, each rat was subjected to ventrotomy under anesthesia with Nembutal® (Dainabot Co., Ltd.; 50 mg/kg, i.p.) to collect blood from abdominal aorta, and the collected blood sample was checked for its blood viscosity using a viscometer (Biolyzer, Tokyo Keiki Co., Ltd.). At the same time, total cholesterol (Wako Pure Chemical Industries, Ltd.; Cholesterol E-test wako), triglyceride (Wako Pure Chemical Industries, Ltd.; Triglyceride G-test wako) and GOT (Wako Pure Chemical Industries, Ltd.; GOT-UV test-wako) in serum samples were measured.

Experiment [4] has as its system red blood cells. In words: Inhibition of thermal hemolysis of red blood cells. Format: cell-based, donryu rats. The conditions noted are these: 53°C for 20 minutes; for inhibition at 10 µM / inhibition at 50 µM / inhibition at 100 µM / inhibition at 200 µM / inhibition at 500 µM: Rattus norvegicus, Erythrocyte, 20 min, read-out: Hemolysis Inhibition Ratio (%) against Control. The procedure: Blood was collected from donryu rats of 150 to 200 g in body weight and centrifuged at 1,500 rpm for 5 minutes to obtain red blood cells. The red blood cells thus collected were diluted with 0.15 M phosphate buffer (pH 7.4) to prepare a 5% red blood cell suspension. A 3.8 ml portion of the thus prepared suspension was mixed with 0.2 ml solution of each compound of the present invention which has been adjusted to each level of the concentrations as shown in the following table, and the resulting mixture was shaken thoroughly and incubated at 53°C for 20 minutes. Thereafter, the thus incubated mixture was cooled rapidly with tap water and centrifuged at 3,000 rpm for 15 minutes, and absorbance at 540 nm of the resulting supernatant fluid was measured using a spectrophotometer (Hitachi: Type 200-20). Inhibition rate (%) of red blood cell hemolysis at each concentration of the compound was calculated based on the absorbance, with the results shown in Table 8.

Experiment [5] concerns rats of diabetes mellitus. Put plainly: Blood sugar level in streptozotocin-induced diabetes mellitus. The conditions noted are these: 50 mg/kg, i.o.; administered for 1 week beginning 1 week after streptozotocin (40 mg/kg); serum. Format: in vivo, male rats of Wistar line. The procedure:
In this experiment, 8-week-old male rats of Wistar line (5 individuals per one group) were used after rearing them for 1 week with normal feed. Streptozotocin (40 mg/kg) was administered by tail intravenous injection to obtain rats of diabetes mellitus. Beginning after 1 week of the streptozotocin administration, oral administration of each test drug has been carried out for 1 week, followed by 24 hours of fasting. Thereafter, blood sample was collected from lower abdominal vena cava under anesthesia with Nembutal® (1 ml/kg, i.p.). Serum samples were prepared from the thus collected blood samples and checked for their blood sugar levels, with the results shown in Table 9.

For experiment [6], the system named is male rats of SHR line. Put plainly: Blood pressure in SHR rats. Format: in vivo. To be noted: 10 mg/kg, p.o., 2 weeks. The procedure: In this experiment, 12-week-old male rats of SHR line (5 to 6 individuals per one group) were used after rearing them for 1 week with normal feed. Oral administration of each test drug has been carried out for 2 weeks and then blood pressure (mmHg) was measured using a small animal hemomanometer (UR-1000).

Experiment [7] has as its system erythrocytes. In words: Erythrocyte deformability (filtration through 5 µm filter) after oral administration. Format: in vivo, male rats of Wistar line. To be noted: 30 mg/kg, p.o.; blood collected 90 minutes after administration; number of filtered erythrocytes. The procedure: In this experiment, 9-week-old male rats of Wistar line (5 to 6 individuals per one group) were used after rearing them for 1 week with normal feed. After 24 hours of fasting, each test drug was administered orally and, 90 minutes thereafter, blood sample was collected from lower abdominal vena cava of each rat under anesthesia with Nembutal® (1 ml/kg, i.p.). Blood samples obtained in this way were checked for their blood clotting time and erythrocyte deformability.
Measuring procedures are as follows.
Erythrocyte deformability ... The collected blood is extruded from a syringe with a constant flow of He in a holder equipped with a filter (5 µm). Weight of blood and the number of erythrocytes filtered during a fixed time are measured and the deformability is expressed based on the number of filtered erythrocytes. The results of these measurements are shown respectively in Tables 11 and 12.

Experiment [8] concerns male SD rats. In words: Thrombus formation in abdominal vena cava. Format: in vivo. The conditions noted are these: 30 mg/kg, p.o.; dry weight of thrombus. As to the method: Each of male SD rats of 130 to 210 g in body weight was anesthetized with Nembutal® (50 mg/kg, i.p.) and subjected to median incision ventrotomy to release about a 2 cm portion of abdominal vena cava below the renal vein. Blood flow of the thus released vena cava was temporarily stopped for 5 minutes with 8 hemostatic clips. After recirculating blood for 5 minutes by removing the hemostatic clips, […] was ligated at a position just below the renal vein and the median-incised part was sutured. Two hours after the ligature, the thus treated rat was again subjected to ventrotomy to excise abdominal vena cava. The thus excised blood vessel was cut open on a filter paper which had been moistened with physiological saline, in order to take out thrombus. The thrombus thus obtained was washed with physiological saline to remove adhered blood and the like substances and then dried at 80°C for 12 hours or longer to measure its dry weight. In this instance, each drug to be tested was orally administered 90 minutes before the clipping to examine its effect by single administration on the formation of thrombus. Separately from this, each test drug was administered to 6-week-old male SD rat continuously for 7 days, thrombus was prepared in the eighth day in the same manner as described above and dry weight of the thrombus was measured, in order to examine effect of the continuous 7 day administration on the thrombus formation.

SMILES strings stand for the structures. Where two headings read alike, the source gives them in different places.

Turning to `C[C@H](CO)[C@H](O)CC[C@@H](C)[C@H]1CC[C@H]2[C@@H]3[C@H](O)C[C@@H]4C[C@H](O)CC[C@]4(C)[C@H]3C[C@H](O)[C@]12C` [Example 12, (24R)-(25R)-3α,7α,12α,24,26-pentahydroxy-5β-cholestane], the “Survival Time ±S.E.” value in experiment [1] amounted to 118.1 ± 3.33 s. In addition, in experiment [2], the “Lethality (%)” value came to 90% and the “Survival Time ±S.E.” value was determined as 121.3 ± 3.21 s. Also, in experiment [3], the “GOT ±S.E.” value amounted to 141 ± 17 IU/ℓ, the “Total Cholesterol ±S.E.” value turned out to be 475 ± 75 mg/dL and the “Triglyceride ±S.E.” value worked out at 115 ± 39 mg/dL. The inhibition at 10 µM in experiment [4] (0.01 mM) was 24%. Moreover, the inhibition at 50 µM in experiment [4] (0.05 mM) was found to be 20%. Also, in experiment [4] (0.1 mM), the inhibition at 100 µM turned out to be 33%. In addition, the inhibition at 200 µM in experiment [4] (0.2 mM) turned out to be 48%. The inhibition at 500 µM in experiment [4] (0.5 mM) was found to be 55%. Moreover, the “Blood Sugar Level ± S.E.” value in experiment [5] was 163 ± 3.8 mg/dL. Moreover, in experiment [6], the “Blood Pressure ±S.E. Average” value is reported as 138 ± 9.5 mmHg and the “Blood Pressure ±S.E. Maximum” value is on record as 173 ± 3.6 mmHg. For the same compound, the “Erythrocyte Deformation: Erythrocyte counts ±S.E.” value (“Erythrocyte Deformation” for short) in experiment [7] came to 3.80 ± 0.78 × 10⁷. In experiment [8], the “Antithrombotic Effect: Thrombus weight ±S.E.” value (“Antithrombotic Effect” for short) was determined as 12.2 ± 1.88 mg.

In the case of `C[C@H](CC[C@@H](O)C(CO)CO)[C@H]1CC[C@H]2[C@@H]3[C@H](O)C[C@@H]4C[C@H](O)CC[C@]4(C)[C@H]3C[C@H](O)[C@]12C` [Illustrative Example 1, (24R)-(+)-3α,7α,12α,24,26,27-hexahydroxy-5β-cholestane], in experiment [1], the “Survival Time ±S.E.” value is 155.4 ± 13.2 s. Moreover, in experiment [2], the “Lethality (%)” value was 70% and the “Survival Time ±S.E.” value worked out at 159 ± 10.72 s. Moreover, in experiment [3], the “GOT ±S.E.” value is recorded as 128 ± 10 IU/ℓ, the “Total Cholesterol ±S.E.” value is 390 ± 61 mg/dL and the “Triglyceride ±S.E.” value came out at 90 ± 16 mg/dL. Also, in experiment [4] (0.01 mM), the inhibition at 10 µM is 23%. The inhibition at 50 µM in experiment [4] (0.05 mM) is 20%. The inhibition at 100 µM in experiment [4] (0.1 mM) amounted to 42%. The inhibition at 200 µM in experiment [4] (0.2 mM) turned out to be 53%. Further, in experiment [4] (0.5 mM), the inhibition at 500 µM was determined as 80%. Also, in experiment [5], the “Blood Sugar Level ± S.E.” value worked out at 177 ± 5.5 mg/dL. Besides, in experiment [6], the “Blood Pressure ±S.E. Average” value stood at 139 ± 8.5 mmHg and the “Blood Pressure ±S.E. Maximum” value is listed as 205 ± 2.1 mmHg. The “Erythrocyte Deformation” value in experiment [7] is 3.72 ± 0.55 × 10⁷. Further, in experiment [8], the “Antithrombotic Effect” value is 15.1 ± 1.98 mg.

In the case of `C[C@H](CC[C@@H](O)CCO)[C@H]1CC[C@H]2[C@@H]3[C@H](O)C[C@@H]4C[C@H](O)CC[C@]4(C)[C@H]3C[C@H](O)[C@]12C` [Illustrative Example 2, 27-nor-(24R)-(+)-3α,7α,12α,24,26-pentahydroxy-5β-cholestane], the figures for the “Survival Time ±S.E.” value in experiment [1] and in experiment [2] were 116.3 ± 4.86 s and 95.3 ± 11.12 s, respectively. Moreover, the “Lethality (%)” value in experiment [2] was 80%. Also, the “GOT ±S.E.” value in experiment [3] is recorded as 141 ± 6 IU/ℓ. The “Total Cholesterol ±S.E.” value in experiment [3] is 444 ± 61 mg/dL. In experiment [3], the “Triglyceride ±S.E.” value amounted to 101 ± 42 mg/dL. Further, the “Hemolysis Inhibition Ratio (%) against Control” value in experiment [4] (0.01 mM) stood at 31%; in experiment [4] (0.05 mM), 23%; in experiment [4] (0.1 mM), 38%; in experiment [4] (0.2 mM), 60%; in experiment [4] (0.5 mM) it was 71%. In addition, the “Blood Sugar Level ± S.E.” value in experiment [5] was 171 ± 4.7 mg/dL. Besides, the “Blood Pressure ±S.E. Average” value in experiment [6] amounted to 145 ± 8.1 mmHg. In addition, the “Blood Pressure ±S.E. Maximum” value in experiment [6] is recorded as 200 ± 3.5 mmHg. Moreover, in experiment [7], the “Erythrocyte Deformation” value is recorded as 3.62 ± 0.46 × 10⁷. The “Antithrombotic Effect” value in experiment [8] stood at 13.4 ± 2.38 mg.

`C[C@H](CC[C@H](O)CCO)[C@H]1CC[C@H]2[C@@H]3[C@H](O)C[C@@H]4C[C@H](O)CC[C@]4(C)[C@H]3C[C@H](O)[C@]12C` [Illustrative Example 3, 27-nor-(24S)-(+)-3α,7α,12α,24,26-pentahydroxy-5β-cholestane]: the “Survival Time ±S.E.” value in experiment [1] stood at 109.2 ± 4.77 s; in experiment [2], 97.2 ± 8.51 s. Further, in experiment [2], the “Lethality (%)” value was 80%. The “GOT ±S.E.” value in experiment [3] was 158 ± 12 IU/ℓ. The “Total Cholesterol ±S.E.” value in experiment [3] stood at 428 ± 68 mg/dL. Further, the “Triglyceride ±S.E.” value in experiment [3] was 105 ± 40 mg/dL. Further, the “Hemolysis Inhibition Ratio (%) against Control” value in experiment [4] (0.01 mM) turned out to be 38%; in experiment [4] (0.05 mM) it was 31%; in experiment [4] (0.1 mM) it was 22%; in experiment [4] (0.2 mM), 41%; in experiment [4] (0.5 mM), 61%. Further, in experiment [5], the “Blood Sugar Level ± S.E.” value was found to be 165 ± 6.6 mg/dL. In addition, the “Blood Pressure ±S.E. Average” value in experiment [6] is 141 ± 3.2 mmHg. Further, in experiment [6], the “Blood Pressure ±S.E. Maximum” value is listed as 199 ± 2.6 mmHg. Also, the “Erythrocyte Deformation” value in experiment [7] was found to be 3.81 ± 0.23 × 10⁷. Moreover, the “Antithrombotic Effect” value in experiment [8] turned out to be 12.3 ± 3.55 mg.

For the origin of these results see EP0489933A1, “BILE ALCOHOL AND DRUG CONTAINING THE SAME AS ACTIVE INGREDIENT” (TSUMURA CO., LTD., priority 1990, dated 1992).
